# Laboratory results published in patent publication US20130064870A1, “DRY POWDER INHALATION COMPOSITION” (SUN PHARMA ADVANCED RESEARCH COMPANY LIMITED, priority 2010, published 2013).
# “And” between values parts separate entries of the source, which are not always exact repeats. Equal entries are not always repeated.
# How the values were obtained:
# Type in all cases: physicochemical
# [1] = Mean particle size (D50) by laser light diffraction
# Protocol: The term ‘mean particle size’ as used herein means the particle size distribution of 50% of the population of the particles is less than the specified value. The particle size was measured using laser light diffraction method of particle size analysis.
# [2] = Polymorphic purity by differential scanning calorimetry (DSC); conditions: micronized, conditioned 80 hr at 40° C., 80 bar, CO2
# [3] = In vitro cascade impactor test (fine particle fraction/dose, MMAD, GSD, deposition), USP <601>; conditions: applicant's patented device
# Source text: A cascade impactor is a multi-stage sampling device for determining the size distribution of a particulate aerosol. The aerosol flows into the impactor whereupon it impinges upon a sequence of solids discs. Each disc (which represents a ‘stage’) is contained within a flow chamber and each chamber is connected in a vertical arrangement to the previous and next chamber in the sequence. Larger particles impact on the first disc and are captured. The sampling velocity increases for each successive chamber/disc so that successively smaller particles are collected. The final stage is typically a fine filter septum. Up to 10 stages are often used which divides the size distribution into an equivalent number of portions. The present invention may use eight Stage Sampler which meets the guidelines of the various world pharmacopoeias (e.g., United States Pharmacopoeia Chapter 601 “USP <601>”) to characterize metered-dose (MDI) and dry powder-dose inhalers (DPI), nebulizers, nasal sprays and other pulmonary drugs or a Next generation impactor (NGI) by Anderson. The testing of inhalation drugs goes hand and hand with cascade impactors, the size ranges collected are considered inhalable (generally <10 μm), just as the inhalation drugs should consistently arrive within the respiratory system into their target regions, the various stages represent the cut-off sizes when deposition may occur within the lungs.
# In order to evaluate the effect of the dry powder inhalation composition itself, the composition was delivered via two different inhalation devices namely, a marketed inhalation device, namely, such as for example Rotahaler® and the applicant's own patented device. The % fine particle fraction and mass mean aerodynamic diameter was determined by testing in vitro in cascade impactor. The therapeutic efficacy of the composition of the present invention in terms of fine particle fraction was determined by a cascade impaction method official in the United States Pharmacopoeia, chapter <601>.
# The conditioned micronized salmeterol xinafoate having mean particle size of […] and a tapped density in the range of 0.20 g·cm^−3 to 0.45 g·cm^−3 was tested for fine particle fraction, mass mean aerodynamic diameter in a cascade impactor. The composition was delivered using the applicant's patented device as described in the description. The results of the in-vitro testing are provided below in Table 2:
# The composition of dry powder inhalation was subjected to fine particle dose determination. This was determined according to the procedure given in USP chapter <601>. The fine particle fraction was measured in terms of deposition at various stages as per the pharmacopoeial method. […]
# Tapped density = assay: Tapped density
# Source text: The term ‘tapped density’ as used herein means that density attained after mechanically tapping a receptacle containing the powder sample.
# [4] = Polymorphic purity by differential scanning calorimetry (DSC)
# Protocol: The phrase ‘substantially free of polymorph II’ means the micronized salmeterol xinafoate having not more than 5%, preferably not more than 3%, most preferably not more than 1% of polymorph II. The polymorphic purity of the salmeterol xinafoate can be determined by any known analytical method. According to the present invention, the polymorphic purity is determined by differential scanning calorimeter (DSC). The melting points of polymorph I and polymorph II are distinct and this method can determine the presence of two.
# In one embodiment, the salmeterol xinafoate was obtained by micronizing salmeterol xinafoate by milling in a jet mill with grinding parameters are as follows: grinding pressure: 1-5 bars, feed pressure: 2-10 bars, feed rate of 0.1-10 g/min, followed by subjecting the micronized material to a temperature of about 50° C. to 90° C., wherein the conditioning cycle is carried out for a time period o about 1 hour to 120 hours, preferably, 1 to 50 hours, most preferably, 20 hrs to 40 hrs. The polymorphic purity of the resultant salmeterol xinafoate so obtained was determined by recording the differential scanning calorimetry (See FIGS. 3-5).
# The results of the polymorphic purity were determined by differential scanning calorimeter and are tabulated below
# [5] = batch D50 4.02, tapped density 0.25
# [6] = batch D50 5.99, tapped density 0.43
# [7] = micronized, before conditioning at 40° C./80 bar CO2
# [8] = micronized, conditioned 40 hr at 85° C., air, no pressure
# [9] = micronized, not conditioned (FIG. 3)
# [10] = un-micronized salmeterol xinafoate (FIG. 2)
compound,measurement,setting,value
OCc1cc(C(O)CNCCCCCCOCCCCc2ccccc2)ccc1O (stereo not drawn) [salmeterol xinafoate],Mean particle size D50,[1]; conditioned micronized batch with tapped density 0.25,about 4.02 μms
same,Mean particle size D50,"[1]; conditioned micronized batch with tapped density 0.25, listed as salmeterol xinofoate",4.02 μms
same,Mean particle size D50,[1]; conditioned micronized batch with tapped density 0.43,about 6 μms
same,Mean particle size D50,"[1]; conditioned micronized batch with tapped density 0.43, listed as salmeterol xinofoate",5.99 μms
same,% Salmeterol xinafoate Polymorph form I,[2],85.95%
same,% Salmeterol xinafoate Polymorph form II,[2],9.09%
same,% FPF Mean,[3]; [5],41.115%
same,GSD Mean,[3]; [5],1.747
same,% FPF Mean,[3]; [6],20.91%
same,GSD Mean,[3]; [6],1.734
same,Tapped density,Tapped density; conditioned micronized batch with D50 4.02,0.25 g/mL
same,Tapped density,Tapped density; conditioned micronized batch with D50 5.99,0.43 g/mL
same,% polymorph I,[4]; [7],44.18%
same,% polymorph II,[4]; [7],34.34%
same,% Salmeterol xinafoate Polymorph form I,"[4]; micronized, conditioned 24 hr at 85° C., air, no pressure",92.78%
same,% Salmeterol xinafoate Polymorph form I,[4]; [8],96.40%
same,% Salmeterol xinafoate Polymorph form II,[4]; [8],3.66% and 3.60%
same,% polymorph I,[4]; [9],69.20%
same,% polymorph II,[4]; [9],30.80%
same,% polymorph form I,[4]; [10],88.8%
same,% polymorph form II,[4]; [10],11.20%
